Experiments:
Assay in all cases: Weeding effect in post-emergence stage (greenhouse pot spray)
Assay type in all cases: in vivo
Conditions in all cases: Table 2, dose 500 g a.i./ha
Abutilon theophrasti = tested on: Abutilon theophrasti
Summary of the method: (§1)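 Pot-grown greenhouse plants, 2-3 leaf stage; spray-tower application; formulation acetone/Tween 80 plus methyl oleate EC 1.5 liter/ha as synergist; rates 500, 250, 125, 60, 15 g a.i./ha; assessed 3 wk post-treatment as fresh weight control, n=3.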

Echinochloa crusgalli = tested on: Echinochloa crusgalli
Summary of the method: as §1

Digitaria sanguinalis = tested on: Digitaria sanguinalis
Summary of the method: as §1

Stellaria media = tested on: Stellaria media
Description: (§2) The activity level criteria for plant damage (i.e., growth control rate) are as follows:
(§3) The above growth control rates are fresh weight control rates.
(§4) Experiment on weeding effect in post-emergence stage: monocotyledonous and dicotyledonous weed seeds (Descurainia sophia, Capsella bursa-pastoris, Abutilon theophrasti, Galium aparine, Stellaria media, Lithospermum arvense, rorippa indica, Alopecurus aequalis, Beckmannia syzigachne, Sclerochloa dura, Phleum paniculatum, Bromus japonicus, Aegilops tauschii, Phalaris arundinacea, Amaranthus retroflexus, Chenopodiaceae, Commelina communis, Sonchus arvensis, convolvulus arvensis, Cirsium setosum, Solanum nigrum, Acalypha australis, Digitaria sanguinalis, Echinochloa crusgalli, Setaria viridis, Setaria glauca, Leptochloa chinensis, Monochoria vaginalis, Sagittaria trifolia, Scirpus juncoides, Cyperus rotundus, Cyperus iria, Cyperus difformis, Fimbristylis, Portulaca oleracea, Xanthium sibiricum, Pharbitis nil) and major crop seeds (wheat, corn, rice, soybean, cotton, oilseed rape, millet, sorghum, potato, sesame, ricinus) were placed in plastic pots filled with soil, then covered with 0.5-2 cm of soil, allowed to grow in a good greenhouse environment. After 2 weeks of sowing, the test plants were treated in the 2 to 3 leaf stage. The tested compounds of the present invention were respectively dissolved in acetone, then added with Tween 80 and 1.5 liter/ha of emulsifiable concentrate of methyl oleate as synergist, diluted with a certain amount of water to obtain a solution with a certain concentration, and sprayed with a spray tower onto the plants. After the application, the plants were cultured for 3 weeks in the greenhouse, and then the experimental results of the weeding were counted. The doses of the used compounds were 500, 250, 125, 60, 15 g a.i./ha, and the averages were obtained by repeating for three times.

Amaranthus retroflexus = tested on: Amaranthus retroflexus
Description: as §2, §3, §4

Cc1nnc(NC(=O)c2ccc(C(F)(F)F)c(S(=O)(=O)CCC(F)(F)F)c2F)o1 [Compound 1-53]
Abutilion theophrasti (activity level) (Abutilon theophrasti): 5 (Level 5: growth control rate is above 85%)
Echinochloa crusgah (activity level) (Echinochloa crusgalli): 5 (Level 5: growth control rate is above 85%)
Digitaria sanguinalis (activity level) (Digitaria sanguinalis): 5 (Level 5: growth control rate is above 85%)
Stellaria media (activity level) (Stellaria media): 5 (Level 5: growth control rate is above 85%)
Amaranthus retroflexus (activity level) (Amaranthus retroflexus): 5 (Level 5: growth control rate is above 85%)

Cc1nnc(NC(=O)c2ccc(C(F)(F)F)c([S+]([O-])C(C)(C)C)c2F)o1 (stereo not drawn) [Compound 1-137]
Abutilion theophrasti (activity level) (Abutilon theophrasti): 5 (Level 5: growth control rate is above 85%)
Echinochloa crusgah (activity level) (Echinochloa crusgalli): 5 (Level 5: growth control rate is above 85%)
Digitaria sanguinalis (activity level) (Digitaria sanguinalis): 5 (Level 5: growth control rate is above 85%)
Stellaria media (activity level) (Stellaria media): 5 (Level 5: growth control rate is above 85%)
Amaranthus retroflexus (activity level) (Amaranthus retroflexus): 5 (Level 5: growth control rate is above 85%)

CC=CC[S+]([O-])c1c(C(F)(F)F)ccc(C(=O)Nc2nnc(C)o2)c1F (stereo not drawn) [Compound 1-398]
Abutilion theophrasti (activity level) (Abutilon theophrasti): 5 (Level 5: growth control rate is above 85%)
Echinochloa crusgah (activity level) (Echinochloa crusgalli): 5 (Level 5: growth control rate is above 85%)
Digitaria sanguinalis (activity level) (Digitaria sanguinalis): 5 (Level 5: growth control rate is above 85%)
Stellaria media (activity level) (Stellaria media): 5 (Level 5: growth control rate is above 85%)
Amaranthus retroflexus (activity level) (Amaranthus retroflexus): 5 (Level 5: growth control rate is above 85%)

Cc1nnc(NC(=O)c2ccc(C(F)(F)F)c([S+]([O-])CC(C)(C)C)c2F)o1 (stereo not drawn) [Compound 1-392]
Abutilion theophrasti (activity level) (Abutilon theophrasti): 5 (Level 5: growth control rate is above 85%)
Echinochloa crusgah (activity level) (Echinochloa crusgalli): 5 (Level 5: growth control rate is above 85%)
Digitaria sanguinalis (activity level) (Digitaria sanguinalis): 5 (Level 5: growth control rate is above 85%)
Stellaria media (activity level) (Stellaria media): 5 (Level 5: growth control rate is above 85%)
Amaranthus retroflexus (activity level) (Amaranthus retroflexus): 5 (Level 5: growth control rate is above 85%)

CCC[S+]([O-])c1c(C(F)(F)F)ccc(C(=O)Nc2nnco2)c1F (stereo not drawn) [Compound 3-8]
Abutilion theophrasti (activity level) (Abutilon theophrasti): 5 (Level 5: growth control rate is above 85%)
Echinochloa crusgah (activity level) (Echinochloa crusgalli): 5 (Level 5: growth control rate is above 85%)
Digitaria sanguinalis (activity level) (Digitaria sanguinalis): 5 (Level 5: growth control rate is above 85%)
Stellaria media (activity level) (Stellaria media): 5 (Level 5: growth control rate is above 85%)
Amaranthus retroflexus (activity level) (Amaranthus retroflexus): 5 (Level 5: growth control rate is above 85%)

Cc1nnc(NC(=O)c2ccc(C(F)(F)F)c(SCC(F)F)c2F)o1 [Compound 1-49]
Abutilion theophrasti (activity level) (Abutilon theophrasti): 5 (Level 5: growth control rate is above 85%)
Echinochloa crusgah (activity level) (Echinochloa crusgalli): 5 (Level 5: growth control rate is above 85%)
Digitaria sanguinalis (activity level) (Digitaria sanguinalis): 5 (Level 5: growth control rate is above 85%)
Stellaria media (activity level) (Stellaria media): 5 (Level 5: growth control rate is above 85%)
Amaranthus retroflexus (activity level) (Amaranthus retroflexus): 5 (Level 5: growth control rate is above 85%)

CCC(C)[S+]([O-])c1c(C(F)(F)F)ccc(C(=O)Nc2nnco2)c1F (stereo not drawn) [Compound 3-17]
Abutilion theophrasti (activity level) (Abutilon theophrasti): 5 (Level 5: growth control rate is above 85%)
Echinochloa crusgah (activity level) (Echinochloa crusgalli): 5 (Level 5: growth control rate is above 85%)
Digitaria sanguinalis (activity level) (Digitaria sanguinalis): 5 (Level 5: growth control rate is above 85%)
Stellaria media (activity level) (Stellaria media): 5 (Level 5: growth control rate is above 85%)
Amaranthus retroflexus (activity level) (Amaranthus retroflexus): 5 (Level 5: growth control rate is above 85%)

CNCC[S+]([O-])c1c(C(F)(F)F)ccc(C(=O)Nc2nnc(C)o2)c1F (stereo not drawn) [Compound 1-441]
Abutilion theophrasti (activity level) (Abutilon theophrasti): 5 (Level 5: growth control rate is above 85%)
Echinochloa crusgah (activity level) (Echinochloa crusgalli): 5 (Level 5: growth control rate is above 85%)
Digitaria sanguinalis (activity level) (Digitaria sanguinalis): 5 (Level 5: growth control rate is above 85%)
Stellaria media (activity level) (Stellaria media): 5 (Level 5: growth control rate is above 85%)
Amaranthus retroflexus (activity level) (Amaranthus retroflexus): 5 (Level 5: growth control rate is above 85%)

Cc1nnc(NC(=O)c2ccc(C(F)(F)F)c(SCCO)c2F)o1 [Compound 1-59]
Abutilion theophrasti (activity level) (Abutilon theophrasti): 5 (Level 5: growth control rate is above 85%)
Echinochloa crusgah (activity level) (Echinochloa crusgalli): 5 (Level 5: growth control rate is above 85%)
Digitaria sanguinalis (activity level) (Digitaria sanguinalis): 5 (Level 5: growth control rate is above 85%)
Stellaria media (activity level) (Stellaria media): 5 (Level 5: growth control rate is above 85%)
Amaranthus retroflexus (activity level) (Amaranthus retroflexus): 5 (Level 5: growth control rate is above 85%)

From US20230041563A1, “N-(1,3,4-OXADIAZOL-2-YL)ARYLCARBOXAMIDES OR SALTS THEREOF, PREPARATION METHODS, HERBICIDAL COMPOSITIONS AND USES THEREOF” (priority 2018, published 2023)
